Experimental data: patent publication US20120010075A1 (priority 2009, published 2012)
Where a name gives a salt, the structure may show the parent alone.

Tested on: Leptosphaeria nodorum (LEPTNO)
Test: In vitro fungitoxicity of hydrazones with and without copper towards Leptosphaeria nodorum (Example 26)
Type: cell-based
Conditions: Parastagonospora nodorum, 72 h, compound 0.05 μg/mL, copper-minus medium, 72 h at 25° C.; read-out: LEPTNO % Inhn. Minus Copper Observed

SMILES | inhibition of growth at 0.05 µg/mL [%]
O=C(N/N=C/c1cc([N+](=O)[O-])ccc1O)c1ccc(Cl)cc1 [Example 197] | 0
O=C(N/N=C/c1cc(I)cc(I)c1O)c1ccc(Cl)cc1 [Example 198] | 11.8
O=C(N/N=C/c1cc(Cl)cc([N+](=O)[O-])c1O)c1ccc(Cl)cc1 [Example 199] | 4
COc1ccc(/C=N/NC(=O)c2ccc(Cl)cc2)c(O)c1 [Example 200] | 0
Cc1ccc(C(=O)N/N=C/c2cc([N+](=O)[O-])cc(Br)c2O)cc1 [Example 202] | 2
COc1cc(Br)cc(/C=N/NC(=O)c2cccc(Cl)c2)c1O [Example 203] | 6.9
COc1cc(Br)cc(/C=N/NC(=O)c2ccc(Cl)cc2)c1O [Example 205] | 15.4
COc1cc(Br)cc(/C=N/NC(=O)c2ccc(C)cc2)c1O [Example 206] | 16.4
C/C(=N\NC(=O)c1ccccc1Cl)c1ccccc1O [Example 212] | 0
C/C(=N\NC(=O)c1ccccc1O)c1ccccc1O [Example 213] | 3.7
COc1ccc(C(=O)N/N=C(\C)c2ccccc2O)cc1 [Example 214] | 7
C/C(=N\NC(=O)c1ccc([N+](=O)[O-])cc1)c1ccccc1O [Example 215] | 0.5
C/C(=N\NC(=O)c1ccc(Cl)cc1Cl)c1ccccc1O [Example 216] | 6.3
C/C(=N\NC(=O)c1ccc(Cl)cc1)c1cc(Br)ccc1O [Example 293] | 7.9

Same assay, conditions: Parastagonospora nodorum, 72 h, copper-minus medium; test compound Concn. 0.05 μg/mL; 72 h at 25° C.; read-out: LEPTNO % Inhn. Minus Copper Observed

SMILES | inhibition of growth at 0.05 µg/mL [%]
O=C(N/N=C/c1ccc(Cl)cc1O)c1cccc(Cl)c1 [Example 391] | 6
C/C(=N\NC(=O)c1ccc2ccccc2c1O)c1cc(Cl)cc(Cl)c1O [Example 480] | 9.5
C/C(=N\NC(=O)c1ccccc1)c1cc(Cl)ccc1O [Example 504] | 1.3
COc1cc(O)c(/C(C)=N/NC(=O)c2ccccc2)c(OC)c1 [Example 526] | 1.8
C/C(=N\NC(=O)c1ccccc1O)c1cc(C(F)(F)F)ccc1O [Example 538] | 12.4
CC(C)/C(=N\NC(=O)c1ccccc1)c1cc(Cl)cc(Cl)c1O [Example 588] | 7.6

Same assay, conditions: Parastagonospora nodorum, 72 h, read-out: LEPTNO % Inhn. Minus Copper Observed

SMILES | inhibition of growth at 0.05 µg/mL [%]
O=C(N/N=C/c1cc(Cl)ccc1O)c1ccc(C(F)(F)F)cc1 [Example 187] | 20.7
Cc1cccc(C(=O)N/N=C/c2cc(Cl)cc(Br)c2O)c1 [Example 194] | 16.1

Same assay, conditions: compound 0.05 μg/mL, copper-plus medium (CuCl2.2H2O), 72 h at 25° C.

SMILES | LEPTNO % Inhn. Plus Copper Observed [%]
O=C(N/N=C/c1cc(Cl)ccc1O)c1ccc(C(F)(F)F)cc1 [Example 187] | 97.5
Cc1cccc(C(=O)N/N=C/c2cc(Cl)cc(Br)c2O)c1 [Example 194] | 96.9
O=C(N/N=C/c1cc([N+](=O)[O-])ccc1O)c1ccc(Cl)cc1 [Example 197] | 97.1
O=C(N/N=C/c1cc(I)cc(I)c1O)c1ccc(Cl)cc1 [Example 198] | 97.7
O=C(N/N=C/c1cc(Cl)cc([N+](=O)[O-])c1O)c1ccc(Cl)cc1 [Example 199] | 98.0
COc1ccc(/C=N/NC(=O)c2ccc(Cl)cc2)c(O)c1 [Example 200] | 95.0
Cc1ccc(C(=O)N/N=C/c2cc([N+](=O)[O-])cc(Br)c2O)cc1 [Example 202] | 96.6
COc1cc(Br)cc(/C=N/NC(=O)c2cccc(Cl)c2)c1O [Example 203] | 95.7
COc1cc(Br)cc(/C=N/NC(=O)c2ccc(Cl)cc2)c1O [Example 205] | 97.2
COc1cc(Br)cc(/C=N/NC(=O)c2ccc(C)cc2)c1O [Example 206] | 98.4
C/C(=N\NC(=O)c1ccccc1Cl)c1ccccc1O [Example 212] | 95.2
C/C(=N\NC(=O)c1ccccc1O)c1ccccc1O [Example 213] | 98.8
COc1ccc(C(=O)N/N=C(\C)c2ccccc2O)cc1 [Example 214] | 98.0
C/C(=N\NC(=O)c1ccc([N+](=O)[O-])cc1)c1ccccc1O [Example 215] | 98.6
C/C(=N\NC(=O)c1ccc(Cl)cc1Cl)c1ccccc1O [Example 216] | 98.4
C/C(=N\NC(=O)c1ccc(Cl)cc1)c1cc(Br)ccc1O [Example 293] | 95.7

Same assay, conditions: copper-plus medium (CuCl2 10 μM); test compound Concn. 0.05 μg/mL; 72 h at 25° C.

SMILES | LEPTNO % Inhn. Plus Copper Observed [%]
O=C(N/N=C/c1ccc(Cl)cc1O)c1cccc(Cl)c1 [Example 391] | 96.9
C/C(=N\NC(=O)c1ccc2ccccc2c1O)c1cc(Cl)cc(Cl)c1O [Example 480] | 95.3
C/C(=N\NC(=O)c1ccccc1)c1cc(Cl)ccc1O [Example 504] | 97.6
COc1cc(O)c(/C(C)=N/NC(=O)c2ccccc2)c(OC)c1 [Example 526] | 16.2
C/C(=N\NC(=O)c1ccccc1O)c1cc(C(F)(F)F)ccc1O [Example 538] | 96.5
CC(C)/C(=N\NC(=O)c1ccccc1)c1cc(Cl)cc(Cl)c1O [Example 588] | 96.3

Tested on: not given
Test: not given
Conditions: not given

SMILES | melting point [°C]
C/C(=N\NC(=O)c1ccccc1O)c1cc(C(F)(F)F)ccc1O (as salt: Na) [Example 538] | 277 to 297
Cc1ccc(C)c(C(=O)N/N=C/c2cc(Cl)cc(Cl)c2O)c1 [Example 23] | 169 to 172
Cc1ccc(C(=O)N/N=C/c2ccc(Cl)cc2O)c(O)c1 [Example 397] | 283 to 287

Tested on: Phytophthora infestans
Test: not given
Type: in vivo, Phytophthora infestans on tomato
Conditions: hydrazone 50 ppm + 50 μM CuCl2.2H2O, applied 24 h before inoculation, assessed 7 days after inoculation, tomato

SMILES | TLB % Control [%]
Cc1ccc(C)c(C(=O)N/N=C/c2cc(Cl)cc(Cl)c2O)c1 [Example 23] | 53.3
O=C(N/N=C/c1cc(Cl)ccc1O)c1ccc(C(F)(F)F)cc1 [Example 187] | 92.7
Cc1cccc(C(=O)N/N=C/c2cc(Cl)cc(Br)c2O)c1 [Example 194] | 80.4
O=C(N/N=C/c1cc([N+](=O)[O-])ccc1O)c1ccc(Cl)cc1 [Example 197] | 43.7
O=C(N/N=C/c1cc(I)cc(I)c1O)c1ccc(Cl)cc1 [Example 198] | 75.4
O=C(N/N=C/c1cc(Cl)cc([N+](=O)[O-])c1O)c1ccc(Cl)cc1 [Example 199] | 56.1
COc1ccc(/C=N/NC(=O)c2ccc(Cl)cc2)c(O)c1 [Example 200] | 78.9
Cc1ccc(C(=O)N/N=C/c2cc([N+](=O)[O-])cc(Br)c2O)cc1 [Example 202] | 49.1
COc1cc(Br)cc(/C=N/NC(=O)c2cccc(Cl)c2)c1O [Example 203] | 56.4
COc1cc(Br)cc(/C=N/NC(=O)c2ccc(Cl)cc2)c1O [Example 205] | 78.9
COc1cc(Br)cc(/C=N/NC(=O)c2ccc(C)cc2)c1O [Example 206] | 80.7
C/C(=N\NC(=O)c1ccccc1Cl)c1ccccc1O [Example 212] | 14.0
C/C(=N\NC(=O)c1ccccc1O)c1ccccc1O [Example 213] | 56.1
COc1ccc(C(=O)N/N=C(\C)c2ccccc2O)cc1 [Example 214] | 60.0
C/C(=N\NC(=O)c1ccc([N+](=O)[O-])cc1)c1ccccc1O [Example 215] | 37.0
C/C(=N\NC(=O)c1ccc(Cl)cc1Cl)c1ccccc1O [Example 216] | 57.9
C/C(=N\NC(=O)c1ccc(Cl)cc1)c1cc(Br)ccc1O [Example 293] | 19.0

Same assay, conditions: hydrazone 50 ppm with 50 μM CuCl2.2H2O, applied 24 h before inoculation; assessed 7 days after inoculation; tomato late blight

SMILES | TLB % Control [%]
O=C(N/N=C/c1ccc(Cl)cc1O)c1cccc(Cl)c1 [Example 391] | 92.0
Cc1ccc(C(=O)N/N=C/c2ccc(Cl)cc2O)c(O)c1 [Example 397] | 6.7
C/C(=N\NC(=O)c1ccc2ccccc2c1O)c1cc(Cl)cc(Cl)c1O [Example 480] | 4.7
C/C(=N\NC(=O)c1ccccc1)c1cc(Cl)ccc1O [Example 504] | 94.0
COc1cc(O)c(/C(C)=N/NC(=O)c2ccccc2)c(OC)c1 [Example 526] | 41.0
C/C(=N\NC(=O)c1ccccc1O)c1cc(C(F)(F)F)ccc1O [Example 538] | 44.0
CC(C)/C(=N\NC(=O)c1ccccc1)c1cc(Cl)cc(Cl)c1O [Example 588] | 5.6
